{"source": "patent US12138254B2", "about": "“Chronic nightly dosing of lasmiditan for migraine prevention” (Eli Lilly and Company, priority 2018, dated 2024)", "key": {"patients with migraine [1]": {"test_system": "patients with migraine", "details": "cited from earlier work; for pain freedom (primary) and MBS freedom (key secondary) at 2 hours vs placebo: Phase 3 trials, all doses (50, 100, 200 mg); for proportion of patients headache pain-free / proportion of patients most bothersome symptom (MBS)-free: lasmiditan 200 mg, 2 hours post-first dose, p<0.001"}, "patients with migraine [2]": {"test_system": "patients with migraine", "experiment": "Phase 3 studies SAMURAI and SPARTAN, lasmiditan vs placebo for acute treatment of migraine", "assay_type": "in vivo, human", "excerpt": "Prior clinical development studies of lasmiditan have employed acute on-demand treatment regimens to relieve migraine pain and symptoms and treat migraine. […] From this analysis, the authors concluded the primary and key secondary endpoints were met and safety outcomes were consistent across the two Phase 3 studies. Thus, acute on-demand use of lasmiditan provides effective treatment for a substantial population of migraine patients, however some patients may continue to have attacks and improved methods of treating and/or preventing these attacks represent an important therapeutic goal.\nThe placebo-controlled Phase 3 studies SAMURAI (NCT02439320) and SPARTAN (NCT02605174) evaluated lasmiditan 50 mg [SPARTAN only], 100 mg and 200 mg. […] GLADIATOR (NCT02565186) is a prospective randomized open-label Phase 3 study to evaluate long-term intermittent use of lasmiditan (100 mg or 200 mg) for acute treatment of migraine. An interim analysis of the effects of lasmiditan on migraine disability assessed with the MIDAS scale in GLADIATOR is described below, and has provided surprising and unexpected evidence of persistent beneficial effects in migraine patients."}, "[3]": {"experiment": "Unbound plasma and brain levels of lasmiditan in rats from dural PPE studies", "assay_type": "in vivo, Sprague-Dawley rats", "details": "rat; for concentration at 1 h / concentration at 24 h: male, Sprague-Dawley; for concentration at 1 h: 1 hr post-dose; for concentration at 24 h: 24 hrs post-dose", "protocol": "Lasmiditan-hemisuccinate is dissolved in sterile water. All doses of lasmiditan are reported as free base equivalent doses, accounting for the weight of the salt. Envigo Sprague-Dawley, Sprague-Dawley male rats (250-350 grams, n=4/group) are fasted overnight prior to dosing. The animals are orally gavaged (2 mL/kg dose volume) with test compound or vehicle one hour prior to stimulation time and returned to their cages with only water available. Approximately 50 minutes post-dosing, the rats are anesthetized with Nembutal (65 mg/kg, ip.) and implanted with stainless steel stimulating electrodes (Rhodes Medical Systems, Inc.) to a depth of 9.2 mm. from the dura. The femoral vein is exposed and fluorescein isothiocyanate-labeled bovine serum albumin (FITC-BSA) (20 mg/kg, iv.), is injected into the femoral vein 2 minutes prior to stimulation. The FITC-BSA functions as a marker for protein extravasation. The left trigeminal ganglion is stimulated for 5 minutes at a current intensity of 1.0 mA (5 Hz, 5 msec pulse duration) with a Model S48 Grass Instrument Stimulator with PSIU6 photoelectric isolation unit (Grass-Telefactor). Five minutes following stimulation, a blood sample is collected by cardiac puncture and the rats are sacrificed by exsanguination with 40 ml of saline. One milliliter of blood is collected and placed in a 1.5 ml EDTA coated tube (Fisher Cat. #540734) on ice. Plasma is separated via centrifugation at 10,000 rpm (941 g) for thirty minutes at 4° C. The top of the skull is removed to collect the brain and dural membranes. The brain and plasma samples are frozen at −80° C. until thawed for compound quantification. The membrane samples are removed from both hemispheres, rinsed with water, and spread flat on microscope slides. The slides are dried for 15 minutes on a slide warmer, then the tissues are cover-slipped with a 70% glycerol/water solution. A fluorescence microscope (Zeiss) equipped with a grating monochromator and a spectrophotometer is used to quantify the amount of FITC-BSA dye in each dural sample. The extravasation induced by electrical stimulation of the trigeminal ganglion is an ipsilateral effect (i.e. occurs only on the side of the dura in which the trigeminal ganglion was stimulated). This allows the other (unstimulated) half of the dura to be used as the control. The ratio of extravasation in the dura from the stimulated side versus the unstimulated side is calculated and reported as the extravasation ratio for each animal. The mean extravasation ratio and standard error of the mean (SEM) are calculated for each treatment group. Controls yield a ratio of approximately 1.8. In contrast, a compound which effectively prevents the extravasation in the dura from the stimulated side would have a ratio of approximately 1. The resulting data are analyzed with a one-way ANOVA followed by Dunnett's post hoc to determine statistical significance (p<0.05). Levels of compound in the plasma and brain samples for each animal are analyzed according to methods known to the skilled artisan. Evaluation of Compound Potency 24 or 48 Hours Following Oral Administration Envigo Sprague-Dawley, Sprague-Dawley male rats (250-350 grams, n=4/group) are fasted overnight prior to dosing for the duration p.o. study. The animals are orally gavaged with test compound or vehicle and returned to their cages with only water available; with food returned 1 hour later. Either 24 or 48 post-dose, the animals are anesthetized with Nembutal (65 mg/kg, ip.) and placed in a stereotaxic frame (David Kopf Instruments). The remainder of the protocol is identical to the method immediately above for Evaluation of Compound Potency 1 Hour Following Oral Administration. […] However, the unbound plasma and brain concentrations measured 24 hours following the administration of the 10 mg/kg dose, are not different from the exposures associated with the non-efficacious 0.1 mg/kg dose at one hour. […]"}, "[4]": {"details": "brain, 10 mg/kg po, read-out: Unbound Brain Cone (mean ± SD; n = 4)"}, "[5]": {"details": "plasma, 10 mg/kg po, read-out: Unbound Plasma Cone (mean ± SD; n = 4)"}, "[6]": {"details": "10 mg/kg po, 48 hrs post-dose, BQL = below quantitation level"}}, "note": "Like-named read-outs stand apart in the source and are kept apart here.", "data": [{"molecule": "CN1CCC(C(=O)c2cccc(NC(=O)c3c(F)cc(F)cc3F)n2)CC1", "note": "[Lasmiditan, 2,4,6-trifluoro-N-[6-(1-methyl-piperidin-4-ylcarbonyl)-pyridin-2-yl]-benzamide]", "values": [{"measurement": "most frequently reported / most common TEAEs", "setting": "patients with migraine [1]; Phase 3 studies, b6: ≥2% and greater than placebo after the first dose", "value": "dizziness, paresthesia, somnolence, fatigue, and nausea"}, {"measurement": "severity of TEAEs", "setting": "patients with migraine [1]; Phase 3 studies", "value": "mild or moderate"}, {"measurement": "pain freedom (primary) and MBS freedom (key secondary) at 2 hours vs placebo", "setting": "patients with migraine [1]", "value": "statistically significant superiority over placebo"}, {"measurement": "pain freedom (primary) and MBS freedom (key secondary) at 2 hours vs placebo", "setting": "patients with migraine [1]; listed as lasmiditan", "value": "significantly higher rates"}, {"measurement": "proportion of patients headache pain-free", "setting": "patients with migraine [1]; SAMURAI, placebo 15.3%", "value": 32.2, "unit": "%"}, {"measurement": "proportion of patients most bothersome symptom (MBS)-free", "setting": "patients with migraine [1]; SAMURAI, placebo 29.5%", "value": 40.7, "unit": "%"}, {"measurement": "proportion of patients headache pain-free", "setting": "patients with migraine [1]; SPARTAN, placebo 21.3%", "value": 38.8, "unit": "%"}, {"measurement": "proportion of patients most bothersome symptom (MBS)-free", "setting": "patients with migraine [1]; SPARTAN, placebo 33.5%", "value": 48.7, "unit": "%"}, {"measurement": "headache pain-free and MBS-free at 2 hours compared to placebo", "setting": "patients with migraine [1]; lasmiditan 100 mg, 50 mg dose groups", "value": "significance was also noted"}, {"measurement": "recurrence rates of migraine", "setting": "patients with migraine [2]; 50-mg to 200-mg dose range, 2-hour to 24-hour time frame after dosing", "value": "similarly low"}, {"measurement": "efficacy on 2-hour pain freedom, dose relation", "setting": "patients with migraine [2]; completed single-attack Phase 3 studies", "value": "dose related"}, {"measurement": "TEAEs, 200 mg vs 100 mg", "setting": "patients with migraine [2]; studies of lasmiditan for acute treatment of migraine", "value": "numerically more TEAEs"}, {"measurement": "concentration at 1 h", "setting": "[3]; brain, 0.1 mg/kg po, read-out: Unbound Brain Cone (mean ± SD; n = 4)", "value": "2 ± 0.1", "unit": "nM"}, {"measurement": "concentration at 1 h", "setting": "[3]; brain, 1 mg/kg po, read-out: Unbound Brain Cone (mean ± SD; n = 4)", "value": "16.6 ± 3.6", "unit": "nM"}, {"measurement": "concentration at 1 h", "setting": "[3]; [4]", "value": "242 ± 95", "unit": "nM"}, {"measurement": "concentration at 24 h", "setting": "[3]; [4]", "value": "2.1 ± 0.9", "unit": "nM"}, {"measurement": "concentration at 1 h", "setting": "[3]; plasma, 0.1 mg/kg po, read-out: Unbound Plasma Cone (mean ± SD; n = 4)", "value": "6 ± 1.9", "unit": "nM"}, {"measurement": "concentration at 1 h", "setting": "[3]; plasma, 1 mg/kg po, read-out: Unbound Plasma Cone (mean ± SD; n = 4)", "value": "67 ± 19.8", "unit": "nM"}, {"measurement": "concentration at 1 h", "setting": "[3]; [5]", "value": "767 ± 254", "unit": "nM"}, {"measurement": "concentration at 24 h", "setting": "[3]; [5]", "value": "6.2 ± 2.5", "unit": "nM"}, {"measurement": "Unbound Brain Cone (mean ± SD; n = 4)", "setting": "[3]; [6]", "value": "BQL"}, {"measurement": "Unbound Plasma Cone (mean ± SD; n = 4)", "setting": "[3]; [6]", "value": "BQL"}]}]}
